Measurements published in patent US9561231B2 (AbbVie Inc., priority 2012, dated 2017).

Tests used:
[1] = target: T1, first (BD1: amino acids K57-E168) bromodomain of BRD4 (Homo sapiens, UniProt O60885); assay: TR-FRET bromodomain binding assay, BRD4 BD1; settings: TR-FRET assay protocol (A-G, compound concentration range); Ki calculated from IC50, probe Kd and probe concentration; read-out: TR-FRET Binding Ki: BRD4 (BDI_K57-E168)
T1 construct: His-tagged first (BD1: amino acids K57-E168)
Procedure, shortened: (§1)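 Displacement of Alexa647-labeled BET-inhibitor probe from His-tagged bromodomain, TR-FRET read-out; buffer 20 mM Na phosphate pH 6.0, 50 mM NaCl, 0.01% Triton X-100. IC50 by 4PL fit; Ki calculated from IC50, probe Kd and probe concentration.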

[2] = target: T2, second (BD2: amino acids E352-E168) bromodomain of BRD4 (Homo sapiens, UniProt O60885); assay: TR-FRET bromodomain binding assay, BRD4 BD2; settings: TR-FRET assay protocol (A-G, compound concentration range); Ki calculated from IC50, probe Kd and probe concentration; read-out: TR-FRET Binding Ki: BRD4 (BDII_E352-M457)
T2 construct: protocol
Procedure, shortened: as §1

[3] = system: breast cancer cell line MX-1; assay: MX-1 cell line proliferation assay (3-day); assay type: cell-based; settings: Homo sapiens, MX1; MX-1 cells, 72 h incubation, Cell Titer Glo; read-out: Cellular proliferation: EC50
Procedure, shortened: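 EC50 derived by sigmoidal fitting of Cell Titer Glo signal relative to DMSO controls. Compound, 3 μM down to 0.0001 μM final in 3-fold steps, was added to adhered MX-1 cells (5000/well, RPMI + 10% FBS) for a 3-day incubation at 37° C.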

| SMILES | Ki [1] [nM] | Ki [2] [nM] | EC50 [3] [nM] |
| --- | --- | --- | --- |
| Cn1nc(-c2ccccc2Oc2ccccc2)c(-c2cccc(CC#N)c2)cc1=O [Example 193, {3-[1-methyl-6-oxo-3-(2-phenoxyphenyl)-1,6-dihydropyridazin-4-yl]phenyl}acetonitrile] | 167 | 1010 | 1290 |
| COC(=O)c1cc(=O)n(C)nc1-c1ccccc1Oc1ccccc1 [Example 218, methyl 1-methyl-6-oxo-3-(2-phenoxyphenyl)-1,6-dihydropyridazine-4-carboxylate] | 778 | 1140 | 9700 |
| COC(=O)/C=C/c1cc(=O)n(C)nc1-c1ccccc1Oc1ccccc1 [Example 219, methyl (2E)-3-[1-methyl-6-oxo-3-(2-phenoxyphenyl)-1,6-dihydropyridazin-4-yl]prop-2-enoate] | 7250 | 308 | 5500 |
| COC(=O)CCc1cc(=O)n(C)nc1-c1ccccc1Oc1ccccc1 [Example 220, methyl 3-[1-methyl-6-oxo-3-(2-phenoxyphenyl)-1,6-dihydropyridazin-4-yl]propanoate] | 24300 | 1910 | 16400 |
| CC(=O)c1cc(=O)n(C)nc1-c1ccccc1Oc1ccccc1 [Example 221, 5-acetyl-2-methyl-6-(2-phenoxyphenyl)pyridazin-3(2H)-one] | 976 | 517 | 7200 |
| Cn1cc(-c2ccccc2Oc2ccccc2)ccc1=O [Example 223, 1-methyl-5-(2-phenoxyphenyl)pyridin-2(1H)-one] | 635 | 872 | 4810 |
| COC(=O)CS(=O)(=O)Nc1ccc(Oc2ccccc2)c(-c2ccc(=O)n(C)c2)c1 [Example 225, methyl {[3-(1-methyl-6-oxo-1,6-dihydropyridin-3-yl)-4-phenoxyphenyl]sulfamoyl}acetate] | 152 | 107 | 10000 |
| Cn1cc(-c2cc(NS(=O)(=O)CC(=O)O)ccc2Oc2ccccc2)ccc1=O [Example 226, {[3-(1-methyl-6-oxo-1,6-dihydropyridin-3-yl)-4-phenoxyphenyl]sulfamoyl}acetic acid] | 271 | 1130 | 10000 |
| Cn1cnc(S(=O)(=O)Nc2ccc(Oc3ccccc3)c(-c3ccc(=O)n(C)c3)c2)c1 [Example 227, 1-methyl-N-[3-(1-methyl-6-oxo-1,6-dihydropyridin-3-yl)-4-phenoxyphenyl]-1H-imidazole-4-sulfonamide] | 157 | 420 | > 3000 |
| Cn1cc(-c2cc(NS(=O)(=O)c3c[nH]cn3)ccc2Oc2ccccc2)ccc1=O [Example 228, N-[3-(1-methyl-6-oxo-1,6-dihydropyridin-3-yl)-4-phenoxyphenyl]-1H-imidazole-4-sulfonamide] | 142 | 154 | > 3000 |
| Cn1cc(-c2cc(NS(=O)(=O)CC(F)(F)F)ccc2Oc2ccccc2)ccc1=O [Example 229, 2,2,2-trifluoro-N-[3-(1-methyl-6-oxo-1,6-dihydropyridin-3-yl)-4-phenoxyphenyl]ethanesulfonamide] | 31.8 | 21.8 | 507 |
| CNS(=O)(=O)Nc1ccc(Oc2ccccc2)c(-c2ccc(=O)n(C)c2)c1 [Example 230, N-methyl-N′-[3-(1-methyl-6-oxo-1,6-dihydropyridin-3-yl)-4-phenoxyphenyl]sulfuric diamide] | 56 | 48 | 395 |
| Cn1cc(-c2cc(NS(C)(=O)=O)ccc2Oc2ccccc2C#N)ccc1=O [Example 237, N-[4-(2-cyanophenoxy)-3-(1-methyl-6-oxo-1,6-dihydropyridin-3-yl)phenyl]methanesulfonamide] | 16.2 | 227 | 1380 |
| COc1ccccc1Oc1ccc(NS(C)(=O)=O)cc1-c1ccc(=O)n(C)c1 [Example 238, N-[4-(2-methoxyphenoxy)-3-(1-methyl-6-oxo-1,6-dihydropyridin-3-yl)phenyl]methanesulfonamide] | 29.2 | 49.9 | 643 |
| Cn1cc(-c2cc(NS(C)(=O)=O)ccc2Oc2cc(F)cc(F)c2)ccc1=O [Example 242, N-[4-(3,5-difluorophenoxy)-3-(1-methyl-6-oxo-1,6-dihydropyridin-3-yl)phenyl]methanesulfonamide] | 45 | 338 | 556 |
| Cn1cc(-c2cc(NS(C)(=O)=O)ccc2OC2CCCCC2)ccc1=O [Example 247, N-[4-(cyclohexyloxy)-3-(1-methyl-6-oxo-1,6-dihydropyridin-3-yl)phenyl]methanesulfonamide] | 22.4 | 194 | 425 |
| Cn1cc(-c2cc(NS(C)(=O)=O)ccc2OC2CCCC2)ccc1=O [Example 248, N-[4-(cyclopentyloxy)-3-(1-methyl-6-oxo-1,6-dihydropyridin-3-yl)phenyl]methanesulfonamide] | 156 | 4570 | 488 |
| Cn1cc(-c2cc(NS(C)(=O)=O)ccc2OC2CCOC2)ccc1=O (stereo not drawn) [Example 249, N-[3-(1-methyl-6-oxo-1,6-dihydropyridin-3-yl)-4-(tetrahydrofuran-3-yloxy)phenyl]methanesulfonamide] | 86.2 | 701 | > 3000 |
| Cn1cc(-c2cc(NS(C)(=O)=O)ccc2OCC2CCOCC2)ccc1=O [Example 250, N-[3-(1-methyl-6-oxo-1,6-dihydropyridin-3-yl)-4-(tetrahydro-2H-pyran-4-ylmethoxy)phenyl]methanesulfonamide] | 143 | 12500 | > 3000 |
| Cn1cc(-c2cc(NC(=O)c3ccc[nH]3)ccc2Oc2ccccc2)ccc1=O [Example 251, N-[3-(1-methyl-6-oxo-1,6-dihydropyridin-3-yl)-4-phenoxyphenyl]-1H-pyrrole-2-carboxamide] | 197 | 260 | 1100 |
| Cn1cc(-c2cc(NC(=O)CNC(=O)OC(C)(C)C)ccc2Oc2ccccc2)ccc1=O [Example 252, tert-butyl (2-{[3-(1-methyl-6-oxo-1,6-dihydropyridin-3-yl)-4-phenoxyphenyl]amino}-2-oxoethyl)carbamate] | 297 | 695 | > 3000 |
| Cn1cc(-c2cc(NC(=O)CN)ccc2Oc2ccccc2)ccc1=O [Example 253, N-[3-(1-methyl-6-oxo-1,6-dihydropyridin-3-yl)-4-phenoxyphenyl]glycinamide] | 942 | 3290 | > 3000 |

The remaining lines, values ahead:

| Ki [1] [nM] | Ki [2] [nM] | EC50 [3] [nM] | SMILES |
| --- | --- | --- | --- |
| 44.6 | 539 | 911 | Cn1cc(-c2cc(NS(C)(=O)=O)ccc2Oc2ccc(C(F)(F)F)cc2)ccc1=O [Example 231, N-{3-(1-methyl-6-oxo-1,6-dihydropyridin-3-yl)-4-[4-(trifluoromethyl)phenoxy]phenyl}methanesulfonamide] |
| 27.8 | 101 | 357 | Cn1cc(-c2cc(NS(C)(=O)=O)ccc2Oc2ccc(F)cc2)ccc1=O [Example 232, N-[4-(4-fluorophenoxy)-3-(1-methyl-6-oxo-1,6-dihydropyridin-3-yl)phenyl]methanesulfonamide] |
| 21.3 | 216 | 1290 | Cn1cc(-c2cc(NS(C)(=O)=O)ccc2Oc2cccnc2)ccc1=O [Example 234, N-[3-(1-methyl-6-oxo-1,6-dihydropyridin-3-yl)-4-(pyridin-3-yloxy)phenyl]methanesulfonamide] |
| 14.2 | 81.6 | 501 | Cn1cc(-c2cc(NS(C)(=O)=O)ccc2Oc2ccccc2C(F)(F)F)ccc1=O [Example 236, N-{3-(1-methyl-6-oxo-1,6-dihydropyridin-3-yl)-4-[2-(trifluoromethyl)phenoxy]phenyl}methanesulfonamide] |
| 32.6 | 39.8 | 138 | Cn1cc(-c2cc(NS(C)(=O)=O)ccc2Oc2ccccc2F)ccc1=O [Example 239, N-[4-(2-fluorophenoxy)-3-(1-methyl-6-oxo-1,6-dihydropyridin-3-yl)phenyl]methanesulfonamide] |
| 115 | 257 | 279 | Cn1cc(-c2cc(NS(C)(=O)=O)ccc2Oc2cccc(Cl)c2)ccc1=O [Example 243, N-[4-(3-chlorophenoxy)-3-(1-methyl-6-oxo-1,6-dihydropyridin-3-yl)phenyl]methanesulfonamide] |
| 116 | 282 | 481 | Cn1cc(-c2cc(NS(C)(=O)=O)ccc2Oc2cccc(C(F)(F)F)c2)ccc1=O [Example 244, N-{3-(1-methyl-6-oxo-1,6-dihydropyridin-3-yl)-4-[3-(trifluoromethyl)phenoxy]phenyl}methanesulfonamide] |
| 78.6 | 439 | 1010 | Cn1cc(-c2cc(NS(C)(=O)=O)ccc2Oc2cccc(C#N)c2)ccc1=O [Example 245, N-[4-(3-cyanophenoxy)-3-(1-methyl-6-oxo-1,6-dihydropyridin-3-yl)phenyl]methanesulfonamide] |
| 43.1 | 132 | 238 | Cn1cc(-c2cc(NS(C)(=O)=O)ccc2Oc2cccc(F)c2)ccc1=O [Example 246, N-[4-(3-fluorophenoxy)-3-(1-methyl-6-oxo-1,6-dihydropyridin-3-yl)phenyl]methanesulfonamide] |
